The values that follow come from paper PMC11544713, “The Application of Untargeted Metabolomic Approaches for the Search of Common Bioavailable Metabolites in Human Plasma Samples from Lippia citriodora and Olea europaea Extracts” (Journal of Agricultural and Food Chemistry, 2024).

The nature of this series: Acute intervention: nutrikinetics of plasma metabolites after ingestion of L. citriodora extract (untargeted HPLC-ESI-QTOF-MS). The method, then:
A total of 25 healthy individuals participated, with an average age of 27 ± 9 years and a mean body mass index (BMI) of 23 ± 3 kg/m^2. None of the participants were taking any medications or nutritional supplements nor did they have any chronic diseases or gastrointestinal issues. The sample size was established based on findings from previous bioavailability research.[14] All participants provided informed consent before participating in the study.
The intervention study was carried out at Miguel Hernández University. Following an overnight fast, the volunteers were categorized into the subsequent groups: a subgroup to evaluate the LC leaf extract (n = 8), another for the OE leaf extract (n = 8), and the placebo subgroup (n = 9). This was a double-blind study, in which sample collection and treatment were carried out uniformly across all three subgroups.
Water was provided ad libitum. Prior to the ingestion of the capsule, a nurse inserted a cannula into the ulnar vein of each volunteer’s nondominant arm, and blood samples were drawn into EDTA-coated tubes at baseline (t = 0). Blood samples were then collected at 0.5, 1, 2, 4, 6, 8, and 10 h after the consumption of the 500 mg capsule. Plasma was separated through centrifugation (10 min at 3000 rpm and 4 °C) and stored at −80 °C until further analysis.
Plasma samples were initially treated using a mixture of methanol and ethanol (50:50; v:v) to remove proteins, following previously reported protocols.[19] During the sample treatment, pooled quality controls (pooled-QC) were prepared by combining equal aliquots from each sample. These QC samples were processed by using the same protocols as the experimental biological samples.
A reversed-phase analytical C18 column (Agilent Zorbax Eclipse Plus, 1.8 μm, 4.6 × 150 mm^2) with a protective cartridge with the same packing was used. MS data were acquired in negative ionization mode, operating in full scan across a mass-to-charge ratio (m/z) range of 50–1700. The analytical method used was adapted from that described by Villegas-Aguilar et al.[19]
Metabolite nutrikinetics were studied using PKSolver, an add-in program for pharmacokinetic data analysis in Microsoft Excel. The time to reach the maximum concentration (observed Tmax) was calculated for each significant metabolite. As an untargeted metabolomic approach was used to detect the circulating metabolites, these were not quantified. Therefore, the maximum concentration (Cmax) and area under the curve (AUC) parameters were calculated in a relative way by using the deconvoluted chromatographic areas. […] Statistical differences were determined by unpaired t tests. All p values less than 0.05 were considered statistically significant.

Setting [1] is: 0.5 h after L. citriodora extract.
The mark [2] stands for this setting: 1 h after L. citriodora extract.
Where [3] appears, read: 2 h after L. citriodora extract.
Where [4] appears, read: 4 h after L. citriodora extract.
The mark [5] stands for this setting: 6 h after L. citriodora extract.
Setting [6] is: 8 h after L. citriodora extract.
The mark [7] stands for this setting: 10 h after L. citriodora extract.
Where [8] appears, read: human plasma, 500 mg capsule of L. citriodora (LC) extract, oral, mean ± SD.

Turning to `COc1cc(CCCO)ccc1OC1OC(CO)C(O)C(O)C1O` (single isomer, unassigned; isomer 2) [dihydroconiferin isomer 2, dihydroconiferin], the “mean chromatographic area in plasma, T0.5” value under setting [1] is 34. Moreover, under setting [2], the “mean chromatographic area in plasma, T1” value came out at 136. Besides, the “mean chromatographic area in plasma, T2” value under setting [3] is on record as 83. Also, under setting [4], the “mean chromatographic area in plasma, T4” value is on record as 0. Besides, the “mean chromatographic area in plasma, T6” value under setting [5] is 0. Further, under setting [6], the “mean chromatographic area in plasma, T8” value is reported as 0. Under setting [7], the “mean chromatographic area in plasma, T10” value worked out at 0. In addition, under setting [8], the “AUC: area under the zero-moment curve” value is 244 ± 102 relative chromatographic area/h, the “Cmax: relative maximum plasma level” value is 136 ± 28 relative chromatographic area and the “observed Tmax: time required to reach Cmax” value (“observed Tmax: time required” below) is listed as 1 ± 0 h.
For the compound `CC1=CC(=O)CC(C)(C)C1(O)/C=C/C(C)=C/COC1OC(CO)C(O)C(O)C1O` (single isomer, unassigned; isomer 3) [abscisic alcohol 11-glucoside isomer 3, abscisic alcohol 11-glucoside], the “mean chromatographic area in plasma, T0.5” value under setting [1] turned out to be 56. Further, the “mean chromatographic area in plasma, T1” value under setting [2] was found to be 258. Also, the “mean chromatographic area in plasma, T2” value under setting [3] was 13. In addition, the “mean chromatographic area in plasma, T4” value under setting [4] was found to be 13. Also, under setting [5], the “mean chromatographic area in plasma, T6” value stood at 0. Also, the “mean chromatographic area in plasma, T8” value under setting [6] is on record as 0. Also, the “mean chromatographic area in plasma, T10” value under setting [7] was found to be 0. Under setting [8], the “AUC: area under the zero-moment curve” value is given as 267 ± 94 relative chromatographic area/h, the “Cmax: relative maximum plasma level” value is 258 ± 95 relative chromatographic area and the “observed Tmax: time required” value is given as 1 ± 0 h.
`CC(O)/C=C\C/C=C\C/C=C\CCCCCCCC(=O)O` (stereo not shown) [17-hydroxylinolenic acid]: under setting [1], the “mean chromatographic area in plasma, T0.5” value was 81. Moreover, under setting [2], the “mean chromatographic area in plasma, T1” value is 428. Moreover, the “mean chromatographic area in plasma, T2” value under setting [3] turned out to be 445. The “mean chromatographic area in plasma, T4” value under setting [4] was 184. The “mean chromatographic area in plasma, T6” value under setting [5] came out at 31. Further, the “mean chromatographic area in plasma, T8” value under setting [6] is reported as 12. For the same compound, the “mean chromatographic area in plasma, T10” value under setting [7] is 20. For the same compound, under setting [8], the “AUC: area under the zero-moment curve” value is listed as 1621 ± 1914 relative chromatographic area/h, the “Cmax: relative maximum plasma level” value is recorded as 335 ± 306 relative chromatographic area and the “observed Tmax: time required” value is reported as 6 ± 4 h.
Consider `COc1cc(/C=C/C(=O)O)ccc1O[C@@H]1O[C@H](C(=O)O)[C@@H](O)[C@H](O)[C@H]1O` [ferulic acid 4-O-glucuronide], for which the “mean chromatographic area in plasma, T0.5” value under setting [1] came to 0. The “mean chromatographic area in plasma, T1” value under setting [2] turned out to be 0. Further, the “mean chromatographic area in plasma, T2” value under setting [3] was 66. Further, under setting [4], the “mean chromatographic area in plasma, T4” value was 163. Moreover, under setting [5], the “mean chromatographic area in plasma, T6” value is 217. In addition, under setting [6], the “mean chromatographic area in plasma, T8” value was determined as 177. Besides, under setting [7], the “mean chromatographic area in plasma, T10” value was determined as 89. For the same compound, under setting [8], the “AUC: area under the zero-moment curve” value is reported as 1304 ± 1975 relative chromatographic area/h, the “Cmax: relative maximum plasma level” value is 282 ± 358 relative chromatographic area and the “observed Tmax: time required” value amounted to 5 ± 2 h.
Turning to `CC(C)=C1CC2(C)C(=CC1=O)CCC(OC1OC(CO)C(O)C(O)C1O)C2C` (stereo not shown) [isopetasoside], the “mean chromatographic area in plasma, T0.5” value under setting [1] is on record as 95. The “mean chromatographic area in plasma, T1” value under setting [2] is 394. In addition, the “mean chromatographic area in plasma, T2” value under setting [3] was found to be 200. The “mean chromatographic area in plasma, T4” value under setting [4] came out at 25. The “mean chromatographic area in plasma, T6” value under setting [5] was 14. For the same compound, the “mean chromatographic area in plasma, T8” value under setting [6] is listed as 0. Besides, the “mean chromatographic area in plasma, T10” value under setting [7] is 0. Besides, under setting [8], the “AUC: area under the zero-moment curve” value is recorded as 722 ± 166 relative chromatographic area/h, the “Cmax: relative maximum plasma level” value is on record as 455 ± 162 relative chromatographic area and the “observed Tmax: time required” value was found to be 2 ± 1 h.
`C=C(C)[C@@H]1[C@H]2OC(=O)[C@@H]1[C@]1(O)C[C@H]3O[C@]34C(=O)O[C@H]2[C@]14C` [picrotoxinin]: under setting [1], the “mean chromatographic area in plasma, T0.5” value is listed as 32. Besides, the “mean chromatographic area in plasma, T1” value under setting [2] came to 102. Further, the “mean chromatographic area in plasma, T2” value under setting [3] turned out to be 91. The “mean chromatographic area in plasma, T4” value under setting [4] was 0. In addition, under setting [5], the “mean chromatographic area in plasma, T6” value turned out to be 0. In addition, the “mean chromatographic area in plasma, T8” value under setting [6] was determined as 0. Besides, the “mean chromatographic area in plasma, T10” value under setting [7] amounted to 0. Besides, under setting [8], the “AUC: area under the zero-moment curve” value was 231 ± 102 relative chromatographic area/h, the “Cmax: relative maximum plasma level” value was 136 ± 44 relative chromatographic area and the “observed Tmax: time required” value is reported as 1.3 ± 0.5 h.
Take `O=C(O)CCCCCCCCC(=O)O` [sebacic acid Isomer 2, sebacic acid]: under “in vivo”, the “mean chromatographic area in plasma, T0.5” value is listed as 15; the “mean chromatographic area in plasma, T1” value is reported as 86; the “mean chromatographic area in plasma, T2” value stood at 86; the “mean chromatographic area in plasma, T4” value is 15.
As to `O=C(O)CCCCCCCCC(=O)O` [sebacic acid isomer, sebacic acid], under “human, in vivo, po, 500 mg”, the “AUC: area under the zero-moment curve” value was 141 ± 86 relative chromatographic area/h, the “Cmax: relative maximum plasma level” value is recorded as 119 ± 27 relative chromatographic area and the “observed Tmax: time required” value was 1.2 ± 0.4 h. Moreover, where the note is “in vivo”, the “mean chromatographic area in plasma, T0.5” value stood at 22; the “mean chromatographic area in plasma, T1” value came out at 102; the “mean chromatographic area in plasma, T2” value stood at 35; the “mean chromatographic area in plasma, T4” value worked out at 0. For the same compound, under “in vivo”, the “mean chromatographic area in plasma, T6” value is recorded as 0; the “mean chromatographic area in plasma, T8” value stood at 0; the “mean chromatographic area in plasma, T10” value turned out to be 0.
As to `COc1cc(C(=O)O)ccc1OS(=O)(=O)O` [vanillic acid 4-O-sulfate isomer 2, vanillic acid 4-O-sulfate], under setting [1], the “mean chromatographic area in plasma, T0.5” value turned out to be 18. The “mean chromatographic area in plasma, T1” value under setting [2] was determined as 102. Besides, under setting [3], the “mean chromatographic area in plasma, T2” value is given as 43. The “mean chromatographic area in plasma, T4” value under setting [4] is on record as 0. Further, under setting [5], the “mean chromatographic area in plasma, T6” value turned out to be 0. Moreover, the “mean chromatographic area in plasma, T8” value under setting [6] was 0. For the same compound, under setting [7], the “mean chromatographic area in plasma, T10” value stood at 0. In addition, under setting [8], the “AUC: area under the zero-moment curve” value is 152 ± 118 relative chromatographic area/h, the “Cmax: relative maximum plasma level” value is reported as 119 ± 41 relative chromatographic area and the “observed Tmax: time required” value was 1.2 ± 0.4 h.
`C[C@@H]1O[C@@H](O[C@@H]2[C@@H](O)[C@H](OCCc3ccc(O)c(O)c3)O[C@H](CO)[C@H]2OC(=O)/C=C/c2ccc(O)c(O)c2)[C@H](O)[C@H](O)[C@H]1O` [verbascoside]: the “detection in plasma samples (native form or phase II metabolites)” value (in vivo) is reported as “has not been detected in plasma samples”.
As to gardoside [gardoside isomer 1], where the note is “human, in vivo, po, 500 mg”, the “AUC: area under the zero-moment curve” value is reported as 608 ± 375 relative chromatographic area/h, the “Cmax: relative maximum plasma level” value is 211 ± 72 relative chromatographic area and the “observed Tmax: time required” value came to 2 ± 0 h. In addition, for the setting “in vivo”, the “mean chromatographic area in plasma, T0.5” value amounted to 0; the “mean chromatographic area in plasma, T1” value was 85; the “mean chromatographic area in plasma, T2” value worked out at 211; the “mean chromatographic area in plasma, T4” value was 86. Under “in vivo”, the “mean chromatographic area in plasma, T6” value worked out at 27; the “mean chromatographic area in plasma, T8” value is reported as 0; the “mean chromatographic area in plasma, T10” value stood at 0.
Consider gardoside [gardoside isomer 2], for which, under “human, in vivo, po, 500 mg”, the “AUC: area under the zero-moment curve” value is listed as 2015 ± 547 relative chromatographic area/h, the “Cmax: relative maximum plasma level” value is reported as 508 ± 110 relative chromatographic area and the “observed Tmax: time required” value is reported as 2.3 ± 0.7 h. Under “in vivo”, the “mean chromatographic area in plasma, T0.5” value was found to be 123; the “mean chromatographic area in plasma, T1” value turned out to be 328; the “mean chromatographic area in plasma, T2” value came to 480; the “mean chromatographic area in plasma, T4” value is 284. For the setting “in vivo”, the “mean chromatographic area in plasma, T6” value worked out at 151; the “mean chromatographic area in plasma, T8” value came to 51; the “mean chromatographic area in plasma, T10” value stood at 15.
Turning to pteroside Z [pteroside Z isomer 1], where the note is “human, in vivo, po, 500 mg”, the “AUC: area under the zero-moment curve” value is listed as 123 ± 53 relative chromatographic area/h, the “Cmax: relative maximum plasma level” value is 120 ± 22 relative chromatographic area and the “observed Tmax: time required” value was 1.2 ± 0.4 h. Also, for the setting “in vivo”, the “mean chromatographic area in plasma, T0.5” value amounted to 0; the “mean chromatographic area in plasma, T1” value came to 105; the “mean chromatographic area in plasma, T2” value amounted to 28; the “mean chromatographic area in plasma, T4” value came to 0. Moreover, under “in vivo”, the “mean chromatographic area in plasma, T6” value amounted to 0; the “mean chromatographic area in plasma, T8” value is on record as 0; the “mean chromatographic area in plasma, T10” value turned out to be 0.
